{"source": "patent US8741911B2", "about": "“Raf inhibitor compounds” (Eli Lilly and Company, priority 2012, dated 2014)", "key": {"Caki-1": {"test_system": "Caki-1", "experiment": "CellTiter-Glo proliferation and viability assay", "assay_type": "cell-based", "conditions": "Homo sapiens"}, "RKO": {"test_system": "RKO", "experiment": "CellTiter-Glo proliferation and viability assay", "assay_type": "cell-based", "conditions": "Homo sapiens"}, "HuH-7": {"test_system": "HuH-7", "experiment": "CellTiter-Glo proliferation and viability assay", "assay_type": "cell-based", "conditions": "Homo sapiens, read-out: Rel IC50"}, "A375 V600E xenograft": {"test_system": "A375 V600E xenograft", "experiment": "A375 xenograft tumor model, efficacy", "assay_type": "in vivo, rat", "conditions": "nude rats, oral twice a day 5, 10, 15, and 20 mg/kg for 21 days", "procedure": "(§1) Briefly, 10×10^6 cells (A375) or 5×10^6 cells (HCT-116) in a 1:1 medium and matrigel mix (0.2 mL total volume) are implanted by subcutaneous injection in the hind leg of nude female rats (NIH model No. NIHRNU-M from Taconic). A total of 8 rats in each group are used for the efficacy study, and a total of 3-4 rats in each group are used for a pharmacodynamic study. The Eli Lilly and Company Animal Care and Use Committee approved all the experimental protocols. […] Tumor growth and body weight are monitored over time to evaluate activity and signs of toxicity. Bidimensional measurements of tumors are performed twice a week and tumor volumes are calculated based on mid-axis length and mid-axis width. Tumor volume data are transformed to a log scale to equalize variance across time and treatment groups. The log volume data are analyzed with a two-way repeated measures analysis of variance by time and treatment using the MIXED® procedures in SAS® software (version 8.2). The correlation model for the repeated measures is spatial power. Treated groups are compared to the control group at each time point. The MIXED® procedure is also used separately for each treatment group to calculate adjusted means and standard errors at each time point. […]"}, "Ba/F3 c-Kit V654A": {"test_system": "Ba/F3 c-Kit V654A", "experiment": "Ba/F3 c-Kit anti-proliferation assay", "assay_type": "cell-based", "conditions": "Mus musculus, BaF3, Ba/F3 c-Kit V654A, read-out: Anti-proliferation activities (IC50)", "procedure": "(§2) To further evaluate the test compound, it is tested against c-Kit mutations commonly occurring in melanoma and/or GIST. Ba/F3 cell line (from ATCC) are transfected with wild type (WT) c-Kit, c-Kit L576P (Willmore-Payne et al, Human Pathology, 2005, 36(5), 486; Willmore-Payne et al, Human Pathology, 2006, 37, 520), c-Kit K642E (Willmore et al, Am J Clin Pathol, 2004, 122(2), 206; Monsel et al, Oncogene, 2010, 29, 227), c-Kit T670I (Tamborini et al, Oncogene, 2006, 25, 6140), or c-Kit V654A (Tamborini et al, Oncogene, 2006, 25, 6140), respectively are established by retroviral transfection methods well known and used by those skilled in the art. The mutations are generated by polymerase chain reaction (PCR) mutagenesis and confirmed by automated sequencing of the PCR-amplified c-Kit expression construct. Ba/F3 stable cell lines are generated by transfecting with plasmid DNA. Expression of the appropriate c-Kit mutants is confirmed by Western blot analysis.\n(§3) Wild type Ba/F3 cells are generally dependent on IL-3 for growth. After c-Kit transfection, these cells are grown in Ba/F3 ATCC recommended growth medium in the presence of stem cell factor (SCF), the ligand of c-Kit. The anti-proliferation activities of test compounds against these cells are tested in the presence of IL-3 or SCF."}, "Ba/F3 c-Kit WT": {"test_system": "Ba/F3 c-Kit WT", "experiment": "Ba/F3 c-Kit anti-proliferation assay", "assay_type": "cell-based", "conditions": "Mus musculus, BaF3, Ba/F3 c-Kit WT, read-out: Anti-proliferation activities (IC50)", "procedure": "as §2, §3"}, "Ba/F3 c-Kit K642E": {"test_system": "Ba/F3 c-Kit K642E", "experiment": "Ba/F3 c-Kit anti-proliferation assay", "assay_type": "cell-based", "conditions": "Mus musculus, BaF3, Ba/F3 c-Kit K642E, read-out: Anti-proliferation activities (IC50)", "procedure": "as §2, §3"}, "SNU-449": {"test_system": "SNU-449", "experiment": "CellTiter-Glo proliferation and viability assay", "assay_type": "cell-based", "conditions": "Homo sapiens"}, "HT-29": {"test_system": "HT-29", "experiment": "CellTiter-Glo proliferation and viability assay", "assay_type": "cell-based", "conditions": "Homo sapiens"}, "[1]": {"test_system": "HCT-116 K-Ras mutant B-Raf wild type xenograft", "experiment": "HCT-116 xenograft tumor model, efficacy", "assay_type": "in vivo, rat", "conditions": "nude rats, oral twice a day 30 mg/kg for 21 days", "procedure": "as §1"}, "HCT-116 cells": {"test_system": "HCT-116 cells", "experiment": "CellTiter-Blue HCT-116 cell proliferation assay", "assay_type": "cell-based", "conditions": "Homo sapiens; HCT-116, CellTiter-Blue; read-out: Cell Proliferation Inhibition IC50", "procedure": "HCT-116 cells (catalog #CCL-247) are obtained from the American Type Culture Collection (ATCC, Manassas, Va.). Briefly, cells are grown in McCoy's 5A supplemented with 10% characterized fetal bovine serum (Invitrogen, Carlsbad, Calif.), and 1% Penicillin/Streptomycin/L-Glutamine at 37 degrees Celsius, 5% CO2, and 95% humidity. Cells are allowed to expand until reaching 75-90% confluency at which point they are subcultured or harvested for assay use. A serial dilution of test compound is dispensed into a 384-well black clear bottom plate in triplicate. Six hundred twenty-five cells are added per well in 50 μL complete growth medium in the 384-well plate. Plates are incubated for 67 hours at 37 degrees Celsius, 5% CO2, and 95% humidity. At the end of the incubation period, 10 μL of a 440 μM solution of resazurin (Sigma, St. Louis, Mo.) in PBS is added to each well of the plate and plates are incubated for an additional 5 hours at 37 degrees Celsius, 5% CO2, and 95% humidity. Plates are read on a Synergy2 reader (Biotek, Winooski, Vt.) using an excitation of 540 nm and an emission of 600 nm. Data is analyzed using Prism software (Graphpad, San Diego, Calif.) to calculate IC50 values.\nThe A375, HT-29, and Colo-205 cells (ATCC) harbor a V600E mutation."}, "Bioavailability": {"experiment": "Bioavailability", "conditions": "in vivo"}, "NCI-H2081": {"test_system": "NCI-H2081", "experiment": "CellTiter-Glo proliferation and viability assay", "assay_type": "cell-based", "conditions": "Homo sapiens"}, "NCI-H522": {"test_system": "NCI-H522", "experiment": "CellTiter-Glo proliferation and viability assay", "assay_type": "cell-based", "conditions": "Homo sapiens"}, "SK-Mel-28": {"test_system": "SK-Mel-28", "experiment": "CellTiter-Glo proliferation and viability assay", "assay_type": "cell-based", "conditions": "Homo sapiens"}}, "note": "Like-named read-outs stand apart in the source and are kept apart here."}
{"smiles": "CNc1ncc2cc(-c3cc(NC(=O)NCCC(C)(C)C)c(F)cc3C)c(C)nc2n1", "note": "[Example 1, 1-(3,3-Dimethylbutyl)-3-(2-fluoro-4-methyl-5-(7-methyl-2-(methylamino)pyrido[2,3-d]pyrimidin-6-yl)phenyl)urea]", "values": [{"measurement": "IC50", "setting": "Caki-1; read-out: Abs IC50", "value": 2.91, "unit": "nM"}, {"measurement": "IC50", "setting": "Caki-1; read-out: Rel IC50", "value": 2.03, "unit": "nM"}, {"measurement": "IC50", "setting": "RKO; read-out: Abs IC50", "value": 4.92, "unit": "nM"}, {"measurement": "IC50", "setting": "RKO; read-out: Rel IC50", "value": 0.26, "unit": "nM"}, {"measurement": "IC50", "setting": "HuH-7", "value": 0.13, "unit": "nM"}, {"measurement": "animal body weight", "setting": "A375 V600E xenograft", "value": "no animal body weight loss"}, {"measurement": "tumor growth", "setting": "A375 V600E xenograft; all dose groups", "value": "tumor growth inhibition and tumor growth regression"}, {"measurement": "IC50", "setting": "Ba/F3 c-Kit V654A; IL-3", "value": 2940, "unit": "nM"}, {"measurement": "IC50", "setting": "Ba/F3 c-Kit V654A; SCF", "value": 86, "unit": "nM"}, {"measurement": "IC50", "setting": "Ba/F3 c-Kit WT; IL-3", "value": 2860, "unit": "nM"}, {"measurement": "IC50", "setting": "Ba/F3 c-Kit WT; SCF", "value": 62, "unit": "nM"}, {"measurement": "IC50", "setting": "Ba/F3 c-Kit K642E; IL-3", "value": 1200, "unit": "nM"}, {"measurement": "IC50", "setting": "Ba/F3 c-Kit K642E; SCF", "value": 47, "unit": "nM"}, {"measurement": "IC50", "setting": "SNU-449; read-out: Abs IC50", "value": 1.87, "unit": "nM"}, {"measurement": "IC50", "setting": "SNU-449; read-out: Rel IC50", "value": 2.01, "unit": "nM"}, {"measurement": "IC50", "setting": "HT-29; HT-29, read-out: Abs IC50", "value": "> 20", "unit": "nM"}, {"measurement": "IC50", "setting": "HT-29; HT-29, read-out: Rel IC50", "value": 0.06, "unit": "nM"}, {"measurement": "IC50", "setting": "HT-29; HT-29, B-Raf V600E, colon, CellTiter-Glo, read-out: IC50", "value": 7.3, "unit": "nM"}, {"measurement": "tumor growth", "setting": "[1]", "value": "statistically significant tumor growth inhibition"}, {"measurement": "IC50", "setting": "HCT-116 cells", "value": 224, "unit": "nM"}, {"measurement": "bioavailability", "setting": "Bioavailability", "value": "low"}, {"measurement": "IC50", "setting": "NCI-H2081; read-out: Abs IC50", "value": "> 20", "unit": "nM"}, {"measurement": "IC50", "setting": "NCI-H2081; read-out: Rel IC50", "value": "> 20", "unit": "nM"}, {"measurement": "IC50", "setting": "NCI-H522; read-out: Abs IC50", "value": 4.5, "unit": "nM"}, {"measurement": "IC50", "setting": "NCI-H522; read-out: Rel IC50", "value": 0.22, "unit": "nM"}, {"measurement": "IC50", "setting": "SK-Mel-28; SK-MEL-28, read-out: Abs IC50", "value": 0.04, "unit": "nM"}, {"measurement": "IC50", "setting": "SK-Mel-28; SK-MEL-28, read-out: Rel IC50", "value": 0.03, "unit": "nM"}, {"measurement": "IC50", "setting": "SK-Mel-28; SK-Mel-28, B-Raf V600E, melanoma, CellTiter-Glo, read-out: IC50", "value": 29, "unit": "nM"}]}
